From the NIST ThermoML archive (doi:10.1016/j.fluid.2012.01.008)
± gives the expanded uncertainty stated by the source.

Conditions: 313.15 K; Liquid; Closed cell (Static) method

Compound	vapor or sublimation pressure
Cc1ccccc1 [toluene]	7.886 ± 0.022 kPa
CCCCCCC [heptane]	12.34 ± 0.03 kPa
